Measurements from patent US20180049996A1, “THERAPEUTIC AGENT FOR CHRONIC RESPIRATORY DISEASE AND COMPOSITION FOR INHIBITING CARDIAC FIBROSIS” (NIPPON HYPOX LABORATORIES INCORPORATED, priority 2015, published 2018).

Legend:
[1] = test system: sputum excretion; assay: Sputum excretion action (phenol red excretion from trachea sections, method of Engler et al.); format: in vivo, male ICR mice; conditions: ambroxol 250 mg/kg oral single dose; relative to negative control; significant increase
Description: The hydroquinone derivative of the present invention was orally administered to 8 week old male ICR mice in a single dose, and the sputum excretion action was evaluated according to the method of Engler et al. (Engler H, Szelenyi I, J.Pharmacol. Moth. 11, 151-157, 1984).
Specifically, the test was conducted as follows. The test material was orally administered to the mice in the control group and the test groups, i.e., an aqueous solution of 2% gum arabic was administered to the mice in the negative control group, and 2,3,5-trimethylhydroquinone-1-hexyl ether (HTHQ), the test substance, was orally administered to the mice in the HTHQ-administered groups at 100 mg/kg body weight, 200 mg/kg body weight and 400 mg/kg body weight, respectively. Ambroxol (a product from Sigma-Aldrich) was orally administered to the mice in the ambroxol administered group at 250 mg/kg body weight. Here, ambroxol is a substance having expectoration action and has been selected as a positive control substance. 30 minutes after the oral administration of the test material, saline in which phenol red (a product from Sigma-Aldrich) was dissolved at a concentration of 0.05 g/mL was intraperitoneally administered at 15 mL/kg. Then, 30 minutes after the administration of phenol red, the mice were euthanized by inhalation of carbon dioxide, and the tracheae were extirpated. Given sites of the extirpated tracheae were cut into sections of fixed size to obtain trachea sections. The obtained trachea sections were added to centrifugation tubes, and 1 mL of saline was added there, and the mixture was sonicated using a ultrasonic washing machine for 15 minutes. After the centrifugation of 5 minutes at 10000 rpm, 0.5 mL of a upper layer solution was dispensed to the centrifugation tubes and 0.05 mL of 1 N sodium hydroxide was added to the tubes. After stirring with a vortex mixer, 0.2 mL of a sample was dispensed to a 96 well plate, and absorbance was measured at 546 nm using a micro plate reader (a product from BioTek Instruments, Inc). The amounts of phenol red excreted from the trachea sections of the mice in the control group and test groups were calculated by extrapolating the measured absorbance to the standard curve based on the absorbance of phenol red reference standard ([…], 2.3 and 1.2 ng/mL). The amounts of phenol red excreted from the trachea sections were substituted in the following formula to calculate the sputum excretion ability of the test material. The formula to calculate the sputum excretion ability is as follows: “sputum excretion ability(%)={(A/B)−1}×100” wherein A is the amounts of phenol red of the test material administered groups (an average) and B is the amount of phenol red of the negative control group (an average).

[2] = test system: Pulmonary Fibrosis Induced by Bleomycin; assay: Bronchoalveolar lavage (BAL) examination, cell numbers, pulmonary fibrosis induced by bleomycin; format: in vivo, male SD rats
Description: (§1) Bleomycin is used to produce disease-model animals of interstitial pneumonia. The bleomycin and 2,3,5-trimethylhydroquinone-1-hexyl ether (HTHQ) as the hydroquinone derivative represented by the general formula (1) described above of the present invention were simultaneously administered to male SD rats of 10 week old after birth to examine the effect of the action. The test groups consisted of the control group to which sterile saline was administered; test group 1 to which bleomycin (7.5 mg/kg body weight) alone was administered; test group 2 to which bleomycin (7.5 mg/kg body weight) and HTHQ (50 mg/kg body weight/day) were administered in combination; and test group 3 to which bleomycin (7.5 mg/kg body weight) and HTHQ (200 mg/kg body weight/day) were administered in combination.
(§2) In test groups 1 to 3, bleomycin was orally administered in a single dose. In test groups 2 and 3, 2,3,5-trimethylhydroquinone-1-hexyl ether (HTHQ) was daily orally administered for 10 or 20 days starting from 24 h after the administration of bleomycin. In test group 1, olive oil, which was used as a solvent of HTHQ, was daily orally administered at 10 mL/kg/day starting from 24 h after the administration of bleomycin. The number of animals in each group was 16. 8 animals of each group were sacrificed on days 10 and 20 after the administration of bleomycin and measurement of body weight, lung autopsy, histopathologic examination of lungs and bronchoalveolar lavage examination were conducted.
Bronchoalveolar lavage (BAL) examination was conducted on the rats in the control group and the test groups. When interstitial pneumonia developed, the infiltration of inflammatory cells occurs and thus the total cell number in BAL fluid increases. The total cell numbers on day 10 after the administration of bleomycin were as follows: 2×10^5 cells in the control group, 9×10^5 cells in test group 1 (the bleomycin-single administration group), 6.5×10^5 cells in test group 2 (the low-dose HTHQ-administered group, 50 mg/kg body weight), and 10.5×10^5 cells in test group 3 (the high-dose HTHQ-administered group, 200 mg/kg body weight), and thus the effect of HTHQ administration was not found on day 10 after the administration of bleomycin.
When interstitial pneumonia developed, the infiltration of alveolar macrophages to interstitial tissue occurs and thus the alveolar macrophage number in BAL fluid increases. The alveolar macrophage numbers on day 10 after the administration of bleomycin were as follows: 1.45×10^5 cells in the control group, 4.5×10^5 cells in test group 1 (the bleomycin-single administration group), 1.99×10^5 cells in test group 2 (the low-dose HTHQ-administered group), and 3.24×10^5 cells in test group 3 (the high-dose HTHQ-administered group), and thus the effect of HTHQ administration was not found on day 10 after the administration of bleomycin. However, on day 20 after the administration, while the alveolar macrophage number of the bleomycin-single administration group was 5.5×10^5 cells, the alveolar macrophage number of the low-dose HTHQ-administered group was 3×10^5 cells and the alveolar macrophage number of the high-dose HTHQ-administered group was decreased to 2×10^5 cells.
When interstitial pneumonia developed, the infiltration of inflammatory cells of neutrophils to interstitial tissue occurs and thus the neutrophil number in BAL fluid increases. The neutrophil numbers on day 10 after the administration of bleomycin were as follows: 1.04×10^4 cells in the control group, 2.28×10^5 cells in test group 1 (the bleomycin-single administration group), 1.44×10^5 cells in test group 2 (the low-dose HTHQ-administered group), and 5.83×10^5 cells in test group 3 (the high-dose HTHQ-administered group), and thus the effect of HTHQ was not found on day 10 after the administration of bleomycin. […]

[3] = test system: Pulmonary Fibrosis Induced by Bleomycin; assay: Gross pathology of lungs, pulmonary fibrosis induced by bleomycin; format: in vivo, male SD rats; conditions: Test group 1: bleomycin 7.5 mg/kg alone; day 20
Description: as §1
as §2, with “8 animals of each group were sacrificed on days 10 and 20 after the administration of bleomycin and measurement of body weight, lung autopsy, histopathologic examination of lungs and bronchoalveolar lavage examination were conducted.” left out

[4] = test system: Pulmonary Fibrosis Induced by Bleomycin; assay: Histopathologic examination of lungs, pulmonary fibrosis induced by bleomycin; format: in vivo, male SD rats; conditions: Test group 1: bleomycin 7.5 mg/kg alone
Description: as §1, §2
The main lung lesions observed in the rats in test group 1 (the bleomycin-single administration group) on day 10 after the administration were the peribronchial and peribronchiola enlargement of alveoli, the hyperplasia of the alveolar wall, the infiltration of monocytes and lymphocytes in alveolar walls and interstitial tissue, and the exudation of alveolar macrophage into alveolar spaces. These lesions were alleviated in rats in test groups 2 and 3 (the HTHQ-administered groups) compared to the tissue in test group 1.
The result of the histopathologic examination of lungs of the control group and the test groups on day 20 after the administration of bleomycin is shown in Table 1 below. “−” indicates “not found”, “+” indicates “mild”, “++” indicates “moderate”, and “+++” indicates “severe” in severity scores. In test group 1 (the bleomycin-single administration group), the hyperplasia and fibrosis of peribronchial and adjacent alveolar walls became remarkable compared to the tissue on day 10 after the administration and the morphology of alveolus almost disappeared due to the infiltration of lymphocytes and neutrophils. The alveolar macrophages infiltrated within alveolar spaces were buried in surrounding tissues.

[5] = test system: Pulmonary Fibrosis Induced by Bleomycin; assay: Body weight and relative weight of lungs, pulmonary fibrosis induced by bleomycin; format: in vivo, male SD rats
Description: as §1, §2
The body weight of the rats in the control group increased over time during the test period. […] The weight of the interstitial tissue of lungs tends to increase and the relative weight of lungs tends to rise when the tissue fibroses. […] Thus, it was expected that the degree of the progression of pulmonary fibrosis of the rats in test groups 2 and 3, to which HTHQ was administered, was less than the rats in test group 1.

[6] = Test group 1: bleomycin 7.5 mg/kg alone, day 10
[7] = bleomycin 7.5 mg/kg alone, day 20

Nc1c(Br)cc(Br)cc1CN[C@H]1CC[C@H](O)CC1 [ambroxol, Ambroxol, reference compound]
sputum excretion ability [1]: 41.1%

bleomycin [reference compound]
alveolar macrophage number in BAL fluid [2, 6]: 4.5×10^5 cells
lymphocyte number in BAL fluid [2, 6]: 2.72×10^5 cells
neutrophil number in BAL fluid [2, 6]: 2.28×10^5 cells
total cell number in BAL fluid [2, 6]: 9×10^5 cells
alveolar macrophage number in BAL fluid [2, 7]: 5.5×10^5 cells
lymphocyte number in BAL fluid [2, 7]: 2.09×10^5 cells
neutrophil number in BAL fluid [2, 7]: 4.97×10^5 cells
total cell number in BAL fluid [2, 7]: 12.8×10^5 cells
gross pathology of lungs [3]: delomorphous nodules as well as many dark red and light red ecchymoses were observed
histopathologic findings of lungs ([4]; day 10): pulmonary fibrosis has progressed
Severity score: Alveolar space, Bleeding ([4]; day 20 after bleomycin): +
Severity score: Alveolar space, Macrophage accumulation ([4]; day 20 after bleomycin): +++
Severity score: Alveolar space, Protein exudation ([4]; day 20 after bleomycin): +++
Severity score: Alveolar wall, Fibroblast accumulation ([4]; day 20 after bleomycin): +++
Severity score: Alveolar wall, Fibrosis of interstitial tissue ([4]; day 20 after bleomycin): +++
Severity score: Alveolar wall, Interstitial edema ([4]; day 20 after bleomycin): +
Severity score: Alveolar wall, Mononuclear cell infiltration ([4]; day 20 after bleomycin): +++
Severity score: Circumvascular region, Perivascular edema ([4]; day 20 after bleomycin): +
Severity score: Circumvascular region, Plasma cell infiltration ([4]; day 20 after bleomycin): +
Severity score: Peribronchial and peribronchiolar regions, Fibrosis of interstitial tissue ([4]; day 20 after bleomycin): +++
Severity score: Peribronchial and peribronchiolar regions, Lymphoid follicle hyperplasia ([4]; day 20 after bleomycin): ++
Severity score: Type II alveolar epithelial cell, Adenomatous hyperplasia ([4]; day 20 after bleomycin): ++
Severity score: Type II alveolar epithelial cell, Atypia and dysplasia ([4]; day 20 after bleomycin): ++
body weight ([5]; test groups 1 to 3, bleomycin 7.5 mg/kg single dose, during the test period): gradually decreased
relative weight of lungs ([5]; test groups 1 to 3, bleomycin 7.5 mg/kg, compared to the control group, p<0.01): significantly increased
